Reference: patent publication US20130040882A1, “USE OF FIBROBLAST GROWTH FACTOR FRAGMENTS” (NOVARTIS AG, priority 2003, published 2013)

Test system: uterine gene expression
Experiment: Gene expression profiling (HGU133A) in the uterus of ovariectomized monkeys treated with estradiol, tamoxifen or raloxifene
Type: in vivo, cynomolgus monkeys (Macaca fascicularis)
Conditions: uterus; OVX monkeys

**Q.** What does the source list for C#C[C@]1(O)CC[C@H]2[C@@H]3CCc4cc(O)ccc4[C@H]3CC[C@@]21C [EE]?
**A.** Fold change relative to OVX: ATPase, H+ transporting, lysosomal 38 kda, V0 subunit d isoform 1: 1.9 fold; Fold change relative to OVX: ATPase, Na+/K+ transporting, beta 3 polypeptide: 2.2 fold; Fold change relative to OVX: Biglycan: 1.9 fold; Fold change relative to OVX: CDC28 protein kinase regulatory subunit 2: 3.8 fold; Fold change relative to OVX: Cadherin 11, type 2, OB-cadherin (osteoblast): 3.4 fold; Fold change relative to OVX: Calcium channel, voltage-dependent, beta 2 subunit: 0.6 fold; Fold change relative to OVX: Catenin (cadherin-associated protein), alpha-like 1: 0.5 fold; Fold change relative to OVX: Chitinase 3-like 1 (cartilage glycoprotein-39): 3.9 fold; Fold change relative to OVX: Chloride intracellular channel 4: 1.7 fold; Fold change relative to OVX: Chondroitin sulfate proteoglycan 2 (versican): 3.6 fold; Fold change relative to OVX: Collagen, type I, alpha 1: 6.6 fold; Fold change relative to OVX: Collagen, type IV, alpha 2: 3.3 fold; Fold change relative to OVX: Collagen, type V, alpha 1: 4.0 fold; Fold change relative to OVX: Collagen, type VI, alpha 3: 3.7 fold; Fold change relative to OVX: Collagen, type VIII, alpha 2: 2.1 fold; Fold change relative to OVX: Cyclin D1 (PRAD1: parathyroid adenomatosis 1): 2.4 fold; Fold change relative to OVX: Cysteine-rich, angiogenic inducer, 61: 3.5 fold; Fold change relative to OVX: Cytochrome c oxidase subunit via polypeptide 1: 1.5 fold; Fold change relative to OVX: Cytochrome c oxidase subunit viia polypeptide 2 (liver): 1.8 fold; Fold change relative to OVX: Dermatopontin: 1.9 fold; Fold change relative to OVX: Dishevelled associated activator of morphogenesis 1: 3.1 fold; Fold change relative to OVX: Fibroblast growth factor 2 (basic): 2.1 fold; Fold change relative to OVX: Fibulin 1: 1.6 fold; Fold change relative to OVX: Four and a half LIM domains 2: 3.0 fold; Fold change relative to OVX: G1 to S phase transition 1: 1.6 fold; Fold change relative to OVX: Growth associated protein 43: 2.0 fold; Fold change relative to OVX: H2A histone family, member Y: 1.4 fold; Fold change relative to OVX: Heparan sulfate proteoglycan 2 (perlecan): 3.5 fold; Fold change relative to OVX: Histone H2A.F/Z variant: 1.4 fold; Fold change relative to OVX: Insulin-like growth factor binding protein 2, 36 kda: 7.1 fold; Fold change relative to OVX: Insulin-like growth factor binding protein 5: 5.2 fold; Fold change relative to OVX: Integrin, beta 5: 1.7 fold; Fold change relative to OVX: Intercrine-alpha, mrna sequence: 1.5 fold; Fold change relative to OVX: LDL receptor adaptor protein: 0.6 fold; Fold change relative to OVX: LIM and senescent cell antigen-like domains 1: 3.7 fold; Fold change relative to OVX: Laminin, beta 1: 1.4 fold; Fold change relative to OVX: Latent transforming growth factor beta binding protein 1: 3.6 fold; Fold change relative to OVX: Matrix metalloproteinase 19: 6.3 fold; Fold change relative to OVX: Mitogen-activated protein kinase kinase kinase kinase 4: 0.6 fold; Fold change relative to OVX: Nidogen (enactin): 3.6 fold; Fold change relative to OVX: Osteoglycin (osteoinductive factor, mimecan): 2.2 fold; Fold change relative to OVX: Peroxiredoxin 1: 1.9 fold; Fold change relative to OVX: Phosphatase and tensin homolog (mutated in multiple advanced cancers 1): 1.8 fold; Fold change relative to OVX: Phospholipid transfer protein: 2.0 fold; Fold change relative to OVX: Pituitary tumour-transforming 1 interacting protein: 1.8 fold; Fold change relative to OVX: Procollagen C-endopeptidase enhancer: 3.2 fold; Fold change relative to OVX: Procollagen-proline, 2-oxoglutarate 4-dioxygenase (proline 4-hydroxylase), alpha polypeptide II: 2.6 fold; Fold change relative to OVX: Progesterone receptor: 9.7 fold; Fold change relative to OVX: Protein tyrosine kinase 9: 2.1 fold; Fold change relative to OVX: SET domain, bifurcated 1: 3.0 fold; Fold change relative to OVX: SPARC-like 1 (mast9, hevin): 2.4 fold; Fold change relative to OVX: Secreted frizzled-related protein 1: 7.1 fold; Fold change relative to OVX: Secreted frizzled-related protein 4: 4.2 fold; Fold change relative to OVX: Secreted protein, acidic, cysteine-rich (osteonectin): 2.9 fold; Fold change relative to OVX: Serine (or cysteine) proteinase inhibitor, clade H (heat shock protein 47), member 1, (collagen binding protein 1): 3.3 fold; Fold change relative to OVX: Solute carrier family 22 (organic cation transporter), member 1-like: 1.9 fold; Fold change relative to OVX: Solute carrier family 25 (mitochondrial carrier; adenine nucleotide translocator), member 5: 2.5 fold; Fold change relative to OVX: Stem cell growth factor; lymphocyte secreted C-type lectin: 2.2 fold; Fold change relative to OVX: Tenascin C (hexabrachion): 1.2 fold; Fold change relative to OVX: Testis Enhanced Gene Transcript (Bax Inhibitor 1): 1.8 fold; Fold change relative to OVX: Thioredoxin interacting protein: 0.3 fold; Fold change relative to OVX: Transforming growth factor, beta-induced, 68 kda: 1.7 fold; Fold change relative to OVX: Ubiquinol-cytochrome c reductase, Rieske iron-sulfur polypeptide 1: 1.4 fold; Fold change relative to OVX: Wingless-type MMTV integration site family, member 2B: 2.6 fold; Fold change relative to OVX: Wingless-type MMTV integration site family, member 16: 1.1 fold; Fold change relative to SHAM control: ATPase, H+ transporting, lysosomal 38 kda, V0 subunit d isoform 1: 1.6 fold; Fold change relative to SHAM control: ATPase, Na+/K+ transporting, beta 3 polypeptide: 1.2 fold; Fold change relative to SHAM control: Biglycan: 0.7 fold; Fold change relative to SHAM control: CDC28 protein kinase regulatory subunit 2: 2.3 fold; Fold change relative to SHAM control: Cadherin 11, type 2, OB-cadherin (osteoblast): 2.1 fold; Fold change relative to SHAM control: Calcium channel, voltage-dependent, beta 2 subunit: 1.1 fold; Fold change relative to SHAM control: Catenin (cadherin-associated protein), alpha-like 1: 1.0 fold; Fold change relative to SHAM control: Chitinase 3-like 1 (cartilage glycoprotein-39): 2.8 fold; Fold change relative to SHAM control: Chloride intracellular channel 4: 0.9 fold; Fold change relative to SHAM control: Chondroitin sulfate proteoglycan 2 (versican): 2.6 fold; Fold change relative to SHAM control: Collagen, type I, alpha 1: 2.4 fold; Fold change relative to SHAM control: Collagen, type IV, alpha 2: 1.9 fold; Fold change relative to SHAM control: Collagen, type V, alpha 1: 1.9 fold; Fold change relative to SHAM control: Collagen, type VI, alpha 3: 2.1 fold; Fold change relative to SHAM control: Collagen, type VIII, alpha 2: 1.2 fold; Fold change relative to SHAM control: Cyclin D1 (PRAD1: parathyroid adenomatosis 1): 2.7 fold; Fold change relative to SHAM control: Cysteine-rich, angiogenic inducer, 61: 2.0 fold; Fold change relative to SHAM control: Cytochrome c oxidase subunit via polypeptide 1: 1.3 fold; Fold change relative to SHAM control: Cytochrome c oxidase subunit viia polypeptide 2 (liver): 1.8 fold; Fold change relative to SHAM control: Dermatopontin: 1.1 fold; Fold change relative to SHAM control: Dishevelled associated activator of morphogenesis 1: 2.0 fold; Fold change relative to SHAM control: Fibroblast growth factor 2 (basic): 1.1 fold; Fold change relative to SHAM control: Fibulin 1: 0.9 fold; Fold change relative to SHAM control: Four and a half LIM domains 2: 1.9 fold; Fold change relative to SHAM control: G1 to S phase transition 1: 1.3 fold; Fold change relative to SHAM control: Growth associated protein 43: 0.8 fold; Fold change relative to SHAM control: H2A histone family, member Y: 1.2 fold; Fold change relative to SHAM control: Heparan sulfate proteoglycan 2 (perlecan): 1.6 fold; Fold change relative to SHAM control: Histone H2A.F/Z variant: 1.4 fold
